Measurements from patent US20230405004A1 (NEURORIVE INC, priority 2020, published 2023).

Key:
5xFAD mouse [1] = experiment: Morris water maze (MWM) task; assay type: in vivo; settings: for Escape latency (Increase or decrease compared to mutated mouse vehicle group): DAY 4; for time spent in the target quadrant (Increase or decrease compared to mutated mouse vehicle group): probe test DAY 5
Description: The 5xFAD mouse used in this experiment was a genetically modified mouse model in which Alzheimer's disease-inducing genes were inserted. Specifically, mice over-expressed both the amyloid precursor protein with the Swedish mutation (K670N, M671L), the Florida mutation […], and the London mutation (V717I) and PS1 with the M146L and L286V mutations. The 5xFAD mouse model is the most widely used in Alzheimer's disease studies.
A Morris water maze (MWM) task was conducted to examine an effect on improving cognitive function depending on the administration of the complex composition of the present invention. The experimental equipment was comprised of a circular water tank (150 cm in diameter and 45 cm in height) filled with water having a temperature of about 22±2° C., an escape platform (10 cm in diameter and 30 cm in height), and 4 markers attached to the wall that allows the mouse to remember the location of the escape platform. The above markers remained unchanged throughout the test period. The escape platform was placed 1 cm above the water surface or 0.5 to 1.5 cm below the water surface according to the purpose of the experiment. When placed under the water surface, the water was made opaque with white water-based paint so that the escape platform was not visible to the eye. The Morris water maze was divided into four quadrants, i.e., northeast (NE), northwest (NW), southeast (SE) and southwest (SW), wherein the escape platform was placed in the center of the southwest quadrant, and the mouse started randomly from one of the others.
The escape platform was made visible on Learning DAY 0. Each mouse was trained to recognize that it was possible to escape when they swam toward the escape platform and landed thereon. On DAY 1-4, the escape platform was hidden by being placed under the water, and then the mice learned the position of the escape platform. The time limit was set to 60 seconds, and if the mouse found the escape platform within 60 seconds, it was allowed to stay on the escape platform for 5 seconds. The mice were then immediately transferred to the breeding cage. On DAY 5, the probe test was performed without the escape platform. The probe test was performed by placing the mouse in the farthest part of the quadrant where the escape platform was placed during the training day, and 60 seconds was set as the time limit. The indexes of cognitive function include the escape latency which is the time required for the mouse to find the escape platform and the time spent in the quadrant where the escape platform was placed. It was judged that the shorter the time it takes to escape (FIG. 2A) and the longer the mouse stays in the quadrant where the escape platform was placed (FIG. 2B), the better the memory and learning ability of the mouse.
Then, each group was subjected to oral administration for 4 weeks to perform the experiment.

5xFAD mouse [2] = experiment: Y-maze test; assay type: in vivo; settings: donepezil 2 mg/kg oral
Description: In order to test an improvement effect on short-term working memory ability according to the administration of the complex composition of the present invention, a Y-maze test was performed using the mouse model of the Alzheimer's disease described above. For the experiment, a Y-shaped maze (36 cm in width, 16 cm in length, 15 cm in height) having three arms was used, and the mice started randomly in three arms. The mice were placed in the maze, then the number of times when the center of the mouse body entered each arm and the cases in which the mice entered each arm sequentially were checked. The alternation behavior is defined as consecutive entries in three different arms without overlapping, and spontaneous alternation behavior was calculated by the following equation:
Alternation (%)=(the number of entities into all the 3 arms on consecutive/the number of entirety arms entries−2)×100
Then, each group was subjected to oral administration to perform the experiment.

## COc1cc2c(cc1OC)C(=O)C(CC1CCN(Cc3ccccc3)CC1)C2 (stereo not drawn) [Donepezil, donepezil]
5xFAD mouse [1]; donepezil 1 mg/kg oral 4 weeks
  Escape latency (Increase or decrease compared to mutated mouse vehicle group): −20.15%
  time spent in the target quadrant (Increase or decrease compared to mutated mouse vehicle group): 51.63%
5xFAD mouse [1]; donepezil 2 mg/kg oral 4 weeks
  Escape latency (Increase or decrease compared to mutated mouse vehicle group): −33.79%
  time spent in the target quadrant (Increase or decrease compared to mutated mouse vehicle group): 148.46%
5xFAD mouse [1]; mutated mouse, donepezil 2 mg/kg alone, stated as reduction
  escape latency reduced by, based on the mutant mouse vehicle group: 33.79%
5xFAD mouse [2]
  Voluntary alternation behavior (Increase or decrease compared to mutated mouse vehicle group): 25.15%
